Legend:
[1] = target: T1, cloned rat mGluR1 receptor (Rattus norvegicus, UniProt P23385); test: Signal transduction at the cloned rat mGluR1 receptor in CHO cells (glutamate-induced intracellular Ca2+ rise, FLIPR); format: cell-based
T1 construct: expressed in transfected cells; host or cells: CHO cells
Protocol: Pharmacological Example Signal Transduction at the Cloned Rat mGluR1 Receptor in CHO Cells
CHO cells expressing the mGluR1 receptor were plated in precoated black 96-well plates. […] The cells were loaded with Fluo-3 AM, plates were incubated for 1 hour at room temperature in the dark, cells were washed and the present compounds were added onto the cells for 20 minutes. […] Relative fluorescence units were recorded and average data graphs of quadruple wells were obtained.

[2] = test system: rats with a Bennett ligation; test: Cold allodynia test in rats with a Bennett ligation (cold plate testing); format: in vivo, rat; settings: male SD rats, IP, dose of 2.5 mg/kg bodyweight, retested after 60 minutes, cold plate 0.0 °C
Protocol: Cold Allodynia Test in Rats with a Bennett Ligation
Male SD rats, weighing 240-280 g at the time of surgery were used.
For surgery, the animals were anaesthetised with Thalamonal (1 ml; subcutane) and sodium pentobarbital (40 mg/kg; intraperitoneal (IP)). The common sciatic nerve of the left hindpaw was exposed at the level of the middle of the thigh by blunt dissection through the biceps femoris. Proximal to the sciatic's trifurcation, about 7 mm of nerve was freed and four loose ligatures with 4.0 chromic gut were placed around the sciatic nerve. Great care was taken to tie the ligatures such that the diameter of the nerve was barely constricted. After surgery, the animals received 1.25 mg/kg naloxone IP.
Cold plate testing was performed on a metal plate of 30×30 cm with transparent acrylic walls around it. The cold plate was cooled to 0.0 (±0.5)° C. using a Julabo F25 cooler. For testing, the animal was placed on the cold plate and the duration of lifting of both the left and the right hindpaw was measured during 5 minutes. The difference in lifting time between the ligated and non-ligated paw was calculated.
At least one week after the operation, animals were placed on the cold plate test and a pre-drug measurement was taken. […] The results obtained during the post drug test were expressed as a percentage of those of the predrug test. […]

T1 sequence (P23385 19-1199): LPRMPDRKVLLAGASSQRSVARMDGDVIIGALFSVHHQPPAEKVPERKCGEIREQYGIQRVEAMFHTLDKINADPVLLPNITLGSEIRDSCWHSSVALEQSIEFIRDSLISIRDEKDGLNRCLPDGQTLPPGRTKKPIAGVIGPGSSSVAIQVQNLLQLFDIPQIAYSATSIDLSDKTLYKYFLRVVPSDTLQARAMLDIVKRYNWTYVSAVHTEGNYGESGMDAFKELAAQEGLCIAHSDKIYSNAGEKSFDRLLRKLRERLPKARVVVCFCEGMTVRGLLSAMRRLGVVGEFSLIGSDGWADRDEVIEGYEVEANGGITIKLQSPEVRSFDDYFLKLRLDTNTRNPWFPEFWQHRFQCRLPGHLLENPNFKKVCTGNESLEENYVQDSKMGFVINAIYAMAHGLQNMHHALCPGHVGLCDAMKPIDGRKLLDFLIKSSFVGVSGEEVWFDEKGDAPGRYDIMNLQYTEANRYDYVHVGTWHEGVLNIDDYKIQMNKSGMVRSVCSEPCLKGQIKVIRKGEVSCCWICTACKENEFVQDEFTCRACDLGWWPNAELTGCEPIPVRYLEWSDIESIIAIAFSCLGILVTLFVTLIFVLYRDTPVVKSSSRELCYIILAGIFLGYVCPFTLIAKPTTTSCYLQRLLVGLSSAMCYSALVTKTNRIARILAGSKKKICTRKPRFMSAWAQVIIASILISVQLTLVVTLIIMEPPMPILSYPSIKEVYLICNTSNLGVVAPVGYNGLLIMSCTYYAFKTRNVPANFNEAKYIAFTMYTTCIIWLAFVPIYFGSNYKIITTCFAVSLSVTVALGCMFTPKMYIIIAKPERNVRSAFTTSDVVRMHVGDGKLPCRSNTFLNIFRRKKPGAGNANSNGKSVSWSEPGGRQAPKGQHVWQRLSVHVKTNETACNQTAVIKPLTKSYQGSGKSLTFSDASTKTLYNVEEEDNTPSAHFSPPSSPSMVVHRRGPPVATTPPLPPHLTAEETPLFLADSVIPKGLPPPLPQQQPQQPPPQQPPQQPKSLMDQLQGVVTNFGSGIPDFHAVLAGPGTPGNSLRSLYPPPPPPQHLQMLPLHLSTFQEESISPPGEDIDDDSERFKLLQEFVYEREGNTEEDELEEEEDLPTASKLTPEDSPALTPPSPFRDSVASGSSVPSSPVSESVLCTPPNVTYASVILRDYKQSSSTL

melting point [°C] | IC50 [1] [nM] | Compound | other results
138 |  | CCc1cc2cc(C(=O)C3CCC(OC)CC3)ccc2nc1C#N (centres unmarked) [Compound 22] | 
 | 26.9 | O=C(Cc1ccsc1)c1ccc2nc3c(cc2c1)CCCS3 [Compound 464] | 
 |  | CCc1cc2cc(C(=O)C3CCC(OC)CC3)ccc2nc1C (centres unmarked) [Compound 27] | all or none criterion on difference in lifting time between ligated and non-ligated paw, post-drug as percentage of pre-drug [2]: antagonism
110 |  | CCc1cc2cc(C(=O)C3CCC(OC)CC3)ccc2nc1I (centres unmarked) [Compound 21] | 
 | 89.1 | CCc1cc2cc(C(=O)[C@H]3CC[C@@H](OC)CC3)ccc2nc1COC(C)=O [Compound 348] | 
113 |  | CCc1cc2cc(C(=O)C3CCC(OC)CC3)ccc2nc1C#CCO (centres unmarked) [Compound 18] | 
 | 23.4 | CCc1cc2cc(C(=O)Cc3ccsc3)ccc2nc1C [Compound 299] | 
 | 77.6 | CO[C@H]1CC[C@@H](C(=O)c2ccc3nc4c(cc3c2)CCCCC4)CC1 [Compound 426] | 
